Series [1] has as its system T cells from peripheral blood. To be noted: Mizuno, et al., 1982; cited from earlier work.
The format of series [2] is cell-based. To be noted: virus not specified.
A further series concerns Semliki Forest virus. Description: Antiviral activity against Semliki Forest virus (plaque assay). The class given is cell-based. An excerpt: Alternatively, an enzyme linked immunosorbant assay (ELISA) can evaluate loss of toxicity, as well as potential potency in terms of continued ability to bind to the nAchR. […] This enables a measurement of the depression in binding of the modified neurotoxin to nAchR, indicative of loss of toxicity, while simultaneously indicating a continued ability of the modified toxin to bind to the nAchR providing a measure of potency (Raymond; unpublished data). To test the effectiveness, or potency of detoxified venom, Sanders utilized a plaque assay with Semliki Forest virus (Miller, et al., 1977).

A further series deals with herpesvirus. Description: Antiviral activity against herpes virus. The class given is cell-based.
The test system of the next series is mice. The class given is in vivo. The text has this:
Administration of a highly toxic substance such as cobratoxin for therapeutic purposes is fraught with obvious difficulties, even when highly diluted. As a diluted substance, its potential effectiveness is reduced, and due to its high affinity for the nAchR, continued use could result in accumulation of the toxin at neuromuscular junctions and the diaphragm with the potential for adverse events. Alpha cobratoxin, of the Thailand cobra, Naja naja kaouthia, is a homogeneous non-glycosylated polypeptide composed of 71 amino acids with a molecular weight of 7821d and a pI of 9.6. Detoxification of alpha-cobratoxin can be achieved by exposure to heat, formamide, hydrogen peroxide, perchloric acid, ozone or other oxidizing agents. The result of exposure of cobratoxin to oxidizing agents is modification of amino acid side chains as well as the lysis of one or more disulfide bonds. […] The procedures used for detoxification described here are based upon the work of Sanders, who preferred the use of hydrogen peroxide (Sanders, et al., 1975). Loss of toxicity by oxidized alpha-neurotoxins (MCTX), as cobratoxin, can be determined by the intraperitoneal (IP) injection of excess levels of the modified protein into mice. […]
The endpoint of the above reactions are most easily determined by assessing the toxicity of the preparation in mice. […]

A short description of series [3]: pI and pH of protein solutions. The class given is physicochemical.

As to `C[N+](C)(C)CCOC(N)=O.[Cl-]` [carbamylcholine chloride], the “decrease of E-rosette formation” value in series [1] was 30%-40%.

As to “alpha-cobratoxin: native non-glycosylated polypeptide of 71 amino acids from the Thailand cobra, Naja naja kaouthia”, the antiviral activity entry in series [2] was “does not demonstrate antiviral activity”. In addition, the “antiviral activity against Semliki Forest virus” value with Semliki Forest virus is on record as “does not have any antiviral activity”. For the same compound, the “antiviral activity against herpes” value in the series on herpesvirus is on record as “does not have any antiviral activity”. In the series with mice (injected subcutaneously or intraperitoneally, death observable within hours), this compound had an LD50 in mice of 1.2 µg. In the series on mice (injection of 1.5 mcg, 25 g mouse), the time to death was not above 25 min. In series [3], this compound returned a pH of solution of 8.5 and a pI of 9.6.

These data come from patent US20050255097A1, “Modified venom and venom components as anti-retroviral agents” (priority 2004, published 2005).
